PubChem BioAssay AID330 (DTP/NCI, 2004)
Values joined by “and” are separate entries in the source; they are usually repeats but may differ in a detail not shown here. Equal values may be shown once. Toxic doses and inconclusive results are not listed. The calls were made as follows: active = survival T/C of 150% or more; inactive = T/C below 125% in these data.

Tested on: P388 leukemia ip, CD2F1 mice, survival T/C
Assay: NCI In Vivo Anticancer Drug Screen. Data for tumor model P388 Leukemia (intraperitoneal) in CD2F1 (CDF1) mice
Settings: endpoint: median survival time, higher = longer survival
Method in brief: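 Mice carrying the transplanted tumor received test compound or vehicle. Survival was recorded in each group, and the value is the treated-group measurement divided by that of the vehicle-treated control group.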

[1] = dose: 25.0 mg/kg/injection, schedule: Q01DX009 (ip), vehicle: other
[2] = dose: 60.0 mg/kg/injection, schedule: Q01DX005 (ip), vehicle: saline with Tween-80
[3] = dose: 120.0 mg/kg/injection, schedule: Q01DX005 (ip), vehicle: saline with Tween-80
[4] = dose: 240.0 mg/kg/injection, schedule: Q01DX005 (ip), vehicle: saline with Tween-80

Measured: T/C

O=C(NC(Cc1ccsc1)C(=O)O)c1ccccc1 (stereo not given)
inactive: [1] 102 % of control | dose: 50.0 mg/kg/injection, schedule: Q01DX009 (ip), vehicle: other 104 % of control | dose: 100.0 mg/kg/injection, schedule: Q01DX009 (ip), vehicle: other 98 % of control

C/C1=C2N=C(/C=C3N=C(/C(C)=C4\[N-]C(C(CC(N)=O)C4(C)CCC(=O)NCC(C)OP(=O)(O)OC4C(CO)OC(n5cnc6cc(C)c(C)cc65)C4O)C4(C)N=C1C(CCC(N)=O)C4(C)CC(N)=O)C(CCC(N)=O)C\3(C)C)C(CCC(N)=O)C/2(C)CC(N)=O.[CH2-]C1OC(n2cnc3c(N)ncnc32)C(O)C1O.[Co+2] (stereo not given)
inactive: dose: 8.8 micrograms/kg/injection, schedule: Q#A X Z (ip), vehicle: water 90 % of control | dose: 88.3 micrograms/kg/injection, schedule: Q#A X Z (ip), vehicle: water 97 % of control | dose: 8830.0 micrograms/kg/injection, schedule: Q#A X Z (ip), vehicle: water 89 % of control

CN(C)CCCNC(CC#N)CCC#N (stereo not given)
inactive: dose: 50.0 mg/kg/injection, schedule: Q01DX009 (ip), vehicle: saline 109 % of control | dose: 100.0 mg/kg/injection, schedule: Q01DX009 (ip), vehicle: saline 104 % of control | dose: 200.0 mg/kg/injection, schedule: Q01DX009 (ip), vehicle: saline 109 % of control

C=C/C(C)=C/[C@H](C)C(=O)C[C@H](O)CC1CC(=O)NC(=O)C1
inactive: dose: 6.25 mg/kg/injection, schedule: Q01DX009 (ip), vehicle: saline with Tween-80 102 % of control | dose: 6.25 mg/kg/injection, schedule: Q04DX003 (ip), vehicle: saline with Tween-80 111 % of control | dose: 12.5 mg/kg/injection, schedule: Q01DX009 (ip), vehicle: saline with Tween-80 118 % of control | dose: 12.5 mg/kg/injection, schedule: Q04DX003 (ip), vehicle: saline with Tween-80 108 % of control | dose: 25.0 mg/kg/injection, schedule: Q04DX003 (ip), vehicle: saline with Tween-80 111 % of control | dose: 50.0 mg/kg/injection, schedule: Q04DX003 (ip), vehicle: saline with Tween-80 111 % of control | dose: 100.0 mg/kg/injection, schedule: Q04DX003 (ip), vehicle: saline with Tween-80 121 % of control | dose: 150.0 mg/kg/injection, schedule: Q01DX009 (ip), vehicle: saline 106 % of control | dose: 200.0 mg/kg/injection, schedule: Q04DX003 (ip), vehicle: saline with Tween-80 101 % of control and 121 % of control
active: dose: 25.0 mg/kg/injection, schedule: Q01DX009 (ip), vehicle: saline with Tween-80 155 % of control | dose: 35.0 mg/kg/injection, schedule: Q01DX009 (ip), vehicle: saline with Tween-80 151 % of control | dose: 50.0 mg/kg/injection, schedule: Q01DX009 (ip), vehicle: saline with Tween-80 150 % of control | dose: 75.0 mg/kg/injection, schedule: Q01DX009 (ip), vehicle: saline with Tween-80 168 % of control | dose: 75.0 mg/kg/injection, schedule: Q01DX009 (ip), vehicle: saline 158 % of control

Cn1c(N2CCOCC2)cc2nc3ccccc3n2c1=O
inactive: [2] 96 % of control | [3] 98 % of control | [4] 96 % of control

NNc1ccc2nnc(Cl)n2n1
inactive: dose: 100.0 mg/kg/injection, schedule: Q04DX002 (ip), vehicle: saline 101 % of control | dose: 200.0 mg/kg/injection, schedule: Q04DX002 (ip), vehicle: saline 102 % of control | dose: 400.0 mg/kg/injection, schedule: Q04DX002 (ip), vehicle: saline 108 % of control

C=CS(C=C)=NS(=O)(=O)c1ccc(C)cc1
inactive: dose: 6.25 mg/kg/injection, schedule: Q01DX009 (ip), vehicle: other 107 % of control and 110 % of control and 120 % of control | dose: 12.5 mg/kg/injection, schedule: Q01DX009 (ip), vehicle: other 107 % of control and 118 % of control and 120 % of control | [1] 117 % of control

COc1ccc(/C=c2\sc3nc(-c4ccccc4)nn3c2=O)cc1
inactive: dose: 50.0 mg/kg/injection, schedule: Q01DX009 (ip), vehicle: Klucel (hydroxypropylcellulose) (HPC) 98 % of control | dose: 100.0 mg/kg/injection, schedule: Q01DX009 (ip), vehicle: Klucel (hydroxypropylcellulose) (HPC) 98 % of control

O=C(O)C(/N=N\c1nn[nH]n1)/N=N\c1ncn[nH]1 (stereo not given)
inactive: dose: 100.0 mg/kg/injection, schedule: Q04DX003 (ip), vehicle: Klucel (hydroxypropylcellulose) (HPC) 102 % of control | dose: 200.0 mg/kg/injection, schedule: Q04DX003 (ip), vehicle: Klucel (hydroxypropylcellulose) (HPC) 108 % of control | dose: 400.0 mg/kg/injection, schedule: Q04DX003 (ip), vehicle: Klucel (hydroxypropylcellulose) (HPC) 101 % of control

CN(C)c1nnnn1-c1ccccc1
inactive: [2] 104 % of control | [3] 107 % of control | [4] 107 % of control
